molecular target: T1, human LPA1 (Homo sapiens, UniProt Q92633); assay: LPA1 functional antagonist assay (calcium flux); assay type: cell-based; conditions: CHO cells overexpressing human LPA1; calcium flux induced by 10 nM LPA; read-out: hLPA1 IC50
T1 construct: expressed in transfected cells; host or cells: Chinese hamster ovary (CHO) cells
Procedure: The effectiveness of compounds of the present invention as LPA1 inhibitors can be determined in an LPA1 functional antagonist assay as follows:
The cells were then equilibrated to room temperature for 30 minutes before the assay. […] IC50 values were determined by fitting data to a 4-parameter logistic equation (GraphPad Prism, San Diego Calif.).

T1 sequence (Q92633 whole entry): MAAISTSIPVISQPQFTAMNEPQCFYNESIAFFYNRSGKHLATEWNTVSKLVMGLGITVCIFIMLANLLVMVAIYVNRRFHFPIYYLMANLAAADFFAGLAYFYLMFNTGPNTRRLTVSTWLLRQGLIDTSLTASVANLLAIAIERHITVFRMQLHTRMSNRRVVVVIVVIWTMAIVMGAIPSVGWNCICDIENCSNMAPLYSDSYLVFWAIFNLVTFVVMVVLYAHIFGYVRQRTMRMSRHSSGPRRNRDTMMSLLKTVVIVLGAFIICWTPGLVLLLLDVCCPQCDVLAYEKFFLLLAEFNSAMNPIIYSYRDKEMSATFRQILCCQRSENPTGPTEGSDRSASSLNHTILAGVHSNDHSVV

| IC50 [nM] | SMILES |
| --- | --- |
| 854 | Cn1nnc(-c2ccc(O[C@H]3CCC[C@H](C(=O)O)C3)cn2)c1CNC(=O)OCC1CC(F)C1 (mixture of isomers) [Example 47, (1S,3S)-3-((6-(5-(((((3-fluorocyclobutyl)methoxy)carbonyl)amino)methyl)-1-methyl-1H-1,2,3-triazol-4-yl)pyridin-3-yl)oxy)cyclohexane-1-carboxylic acid] |
| 48 | Cc1nc(-c2nnn(C)c2CNC(=O)OCC2CC(F)C2)ccc1O[C@H]1CCC[C@H](C(=O)O)C1 (mixture of isomers) [Example 48, (1S,3S)-3-((6-(5-(((((3-fluorocyclobutyl)methoxy)carbonyl)amino)methyl)-1-methyl-1H-1,2,3-triazol-4-yl)-2-methylpyridin-3-yl)oxy)cyclohexane-1-carboxylic acid] |
| 85 | Cc1nc(-c2nnn(C)c2NC(=O)OC(C)C2CC2)ccc1O[C@H]1CCC[C@H](C(=O)O)C1 (mixture of isomers) [Example 69, (1S,3S)-3-((6-(5-(((1-cyclopropyl-ethoxy)carbonyl)amino)-1-methyl-1H-1,2,3-triazol-4-yl)-2-methyl-pyridin-3-yl)oxy)cyclohexane-1-carboxylic acid] |
| 105 | CCC(C)CNC(=O)NCc1c(-c2ccc(O[C@H]3CCC[C@H](C(=O)O)C3)c(C)n2)nnn1C (mixture of isomers) [Example 118, (1S,3S)-3-((2-methyl-6-(1-methyl-5-((3-(2-methylbutyl)ureido)methyl)-1H-1,2,3-triazol-4-yl)pyridin-3-yl)oxy)cyclo-hexane-1-carboxylic acid] |
| 187 | CCCC(NC(=O)NCc1c(-c2ccc(O[C@H]3CCC[C@H](C(=O)O)C3)c(C)n2)nnn1C)c1ccccc1 (mixture of isomers) [Example 119, (1S,3S)-3-((2-methyl-6-(1-methyl-5-((3-(1-phenylbutyl)ureido)methyl)-1H-1,2,3-triazol-4-yl)pyridin-3-yl)oxy)cyclo-hexane-1-carboxylic acid] |
| 238 | CCC(NC(=O)NCc1c(-c2ccc(O[C@H]3CCC[C@H](C(=O)O)C3)c(C)n2)nnn1C)c1ccccc1 (mixture of isomers) [Example 120, (1S,3S)-3-((2-methyl-6-(1-methyl-5-((3-(1-phenylpropyl)ureido)methyl)-1H-1,2,3-triazol-4-yl)pyridin-3-yl)oxy)cyclo-hexane-1-carboxylic acid] |
| 555 | Cc1nc(-c2nnn(C)c2CNC(=O)NC(CF)c2ccccc2)ccc1O[C@H]1CCC[C@H](C(=O)O)C1 (mixture of isomers) [Example 121, (1S,3S)-3-((6-(5-((3-(2-fluoro-1-phenyl-ethyl)ureido)methyl)-1-methyl-1H-1,2,3-triazol-4-yl)-2-methylpyridin-3-yl)oxy)cyclohexane-1-carboxylic acid] |
| 142 | Cc1nc(-c2nnn(C)c2CNC(=O)NC(C)c2ccccc2)ccc1O[C@H]1CCC[C@H](C(=O)O)C1 (mixture of isomers) [Example 129, (1S,3S)-3-((2-methyl-6-(1-methyl-5-((3-(1-phenylethyl)ureido)methyl)-1H-1,2,3-triazol-4-yl)pyridin-3-yl)oxy)cyclo-hexane-1-carboxylic acid] |
| 517 | CCCC(C)NC(=O)Nc1c(-c2ccc(O[C@H]3CCC[C@H](C(=O)O)C3)c(C)n2)nnn1C (mixture of isomers) [Example 147, (1S,3S)-3-((2-methyl-6-(1-methyl-5-(3-(pentan-2-yl)ureido)-1H-1,2,3-triazol-4-yl)pyridin-3-yl)oxy)cyclo-hexane-1-carboxylic acid] |
| 52 | Cc1nc(-c2nnn(C)c2NC(=O)OCC2CC2C)ccc1O[C@H]1CCC[C@H](C(=O)O)C1 (mixture of isomers) [Example 223, (1S,3S)-3((2-methyl-6-(1-methyl-5-((((2-methylcyclopropyl)methoxy)carbonyl)amino)-1H-1,2,3-triazol-4-yl)pyridin-3-yl)oxy)cyclohexane-1-carboxylic acid (mixture of cyclopropyl diastereomers)] |
| 1020 | Cc1nc(-c2nnn(C)c2CCNC(=O)CC(C)CC(C)(C)C)ccc1O[C@H]1CCC[C@H](C(=O)O)C1 (mixture of isomers) [Example 239, (1S,3S)-3-((2-methyl-6-(1-methyl-5-(2-(3,5,5-trimethylhexanamido)ethyl)-1H-1,2,3-triazol-4-yl)pyridin-3-yl)oxy)cyclohexane-1-carboxylic acid (diastereomeric mixture)] |
| 148 | CC(C)CCOC(=O)NCc1c(-c2ccc(O[C@@H]3CCC[C@@H](C(=O)O)C3)cc2)nnn1C (racemic) [Example 4, (±)-(trans)-3-(4-(5-((((isopentyloxy)carbonyl)amino)methyl)-1-methyl-1H-1,2,3-triazol-4-yl)phenoxy)cyclohexane-1-carboxylic acid] |
| 457 | Cn1nnc(-c2ccc(O[C@@H]3CCC[C@@H](C(=O)O)C3)cc2)c1CNC(=O)OCCC1CC1 (racemic) [Example 39, (±)-trans-3-(4-(5-((((2-cyclopropylethoxy)carbonyl)amino)methyl)-1-methyl-1H-1,2,3-triazol-4-yl)phenoxy)cyclohexane-1-carboxylic acid] |
| 664 | Cn1nnc(-c2ccc(O[C@@H]3CCC[C@@H](C(=O)O)C3)cc2)c1CNC(=O)OCc1ccccc1 (racemic) [Example 40, (±)-trans-3-(4-(5-((((benzyloxy)carbonyl)amino)methyl)-1-methyl-1H-1,2,3-triazol-4-yl)phenoxy)cyclohexane-1-carboxylic acid] |
| 12 | Cc1nc(-c2nnn(C)c2CNC(=O)OCc2ccccc2)ccc1O[C@@H]1CCC[C@@](F)(C(=O)O)C1 (racemic) [Example 209, (±)-Cis-3-((6-(5-((((benzyloxy)carbonyl)amino)methyl)-1-methyl-1H-1,2,3-triazol-4-yl)-2-methylpyridin-3-yl)oxy)-1-fluorocyclohexanecarboxylic acid] |
| 1210 | Cc1nc(-c2nnn(C)c2CNC(=O)N(C)C(C)C(C)C)ccc1O[C@H]1CCC[C@H](C(=O)O)C1 (single isomer, unassigned) [Example 125] |
| 611 | Cc1nc(-c2nnn(C)c2CNC(=O)NC(C)C(C)C)ccc1O[C@H]1CCC[C@H](C(=O)O)C1 (single isomer, unassigned) [Example 126] |
| 44 | Cc1nc(-c2nnn(C)c2CNC(=O)OCC2CC2(F)F)ccc1OC1CCCC(C(=O)O)C1 (single isomer, unassigned) [Example 207] |
| 5 | Cc1nc(-c2nnn(C)c2CNC(=O)OCc2ccccc2)ccc1O[C@@H]1CCC[C@@](F)(C(=O)O)C1 (single isomer, unassigned) [Example 210] |
| 192 | Cc1nc(-c2nnn(C)c2CNC(=O)OCc2ccccc2)ccc1O[C@@H]1CCC[C@@](F)(C(=O)O)C1 (single isomer, unassigned) [Example 211] |

| SMILES | IC50 [nM] |
| --- | --- |
| CC(COC(=O)NCc1c(-c2ccc(O[C@H]3CCC[C@H](C(=O)O)C3)cn2)nnn1C)CC(F)(F)F (mixture of isomers) [Example 31, (1S,3S)-3-((6-(1-methyl-5-((((4,4,4-trifluoro-2-methylbutoxy)carbonyl)amino)methyl)-1H-1,2,3-triazol-4-yl)pyridin-3-yl)oxy)cyclohexanecarboxylic acid] | 102 |
| Cc1nc(-c2nnn(C)c2CNC(=O)OCC(C)CC(F)(F)F)ccc1O[C@H]1CCC[C@H](C(=O)O)C1 (mixture of isomers) [Example 32, (1S,3S)-3-((2-methyl-6-(1-methyl-5-((((4,4,4-trifluoro-2-methylbutoxy)carbonyl)amino)methyl)-1H-1,2,3-triazol-4-yl)pyridin-3-yl)oxy)cyclo-hexane-1-carboxylic acid] | 69 |
| CC[C@H](C)COC(=O)NCc1c(-c2ccc(O[C@H]3CCC[C@H](C(=O)O)C3)c(C)n2)nnn1C [Example 1, (1S,3S)-3-((2-Methyl-6-(1-methyl-5-(((((S)-2-methylbutoxy)carbonyl)amino)methyl)-1H-1,2,3-triazol-4-yl)pyridin-3-yl)oxy)cyclohexanecarboxylic acid] | 18 |
| CC[C@H](C)COC(=O)N(C)Cc1c(-c2ccc(O[C@H]3CCC[C@H](C(=O)O)C3)c(C)n2)nnn1C [Example 2, (1S,3S)-3-((2-Methyl-6-(1-methyl-5-((methyl(((S)-2-methylbutoxy)carbonyl)amino)methyl)-1H-1,2,3-triazol-4-yl)pyridin-3-yl)oxy)cyclohexanecarboxylic acid] | 29 |

same assay, conditions: human LPA1 functional antagonist assay; read-out: hLPA1 IC50

| IC50 [nM] | SMILES |
| --- | --- |
| 53 | Cc1nc(-c2nnn(C)c2CNC(=O)OCC2CC2(F)F)ccc1O[C@H]1CCC[C@H](C(=O)O)C1 (mixture of isomers) [Example 180, (1S,3S)-3-((6-(5-(((((2,2-difluoro-cyclopropyl)methoxy)carbonyl)amino)methyl)-1-methyl-1H-1,2,3-triazol-4-yl)-2-methylpyridin-3-yl)oxy)cyclohexane-1-carboxylic acid (diastereomers at cyclopropyl carbon)] |
| 96 | Cc1nc(-c2nnn(C)c2CNC(=O)OCC(C)C(F)(F)F)ccc1O[C@H]1CCC[C@H](C(=O)O)C1 (mixture of isomers) [Example 204, (1S,3S)-3((2-methyl-6-(1-methyl-5-((((3,3,3-trifluoro-2-methylpropoxy)carbonyl)amino)methyl)-1H-1,2,3-triazol-4-yl)pyridin-3-yl)oxy)cyclohexane-1-carboxylic acid] |
| 32 | Cc1nc(-c2nnn(C)c2CNC(=O)OC[C@H]2C[C@@H]2C)ccc1O[C@H]1CCC[C@H](C(=O)O)C1 (stereo in doubt) [Example 183, (1S,3S)-3((2-methyl-6-(1-methyl-5-(((((trans-2-methylcyclopropyl)methoxy)carbonyl)amino)methyl)-1H-1,2,3-triazol-4-yl)pyridin-3-yl)oxy)cyclohexane-1-carboxylic acid] |

From patent publication US11697646B2, “Triazole N-linked carbamoyl cyclohexyl acids as LPA antagonists” (BRISTOL-MYERS SQUIBB COMPANY, priority 2017, dated 2023)
